The values below come from US20080214537A1, “BRIDGED PHENANTHRIDINES” (CARA THERAPEUTICS, INC., priority 2007, published 2008).

What is called EC50 is the concentration giving half of the maximal effect. The low end stands for an effect from little substance, the high end for a need for much substance.

The target of test [1] is human CB2 receptor (hCB2) (Homo sapiens, UniProt P34972). The experiment in a line: cAMP assay (LANCE TR-FRET) in CHO-K1 cells expressing hCB2. Format: cell-based. The note with it: for Emax: CHO-K1, intrinsic activity: percent maximal activation compared to full activation by CP55,940 (1 μM = 100%), read-out: hCB2 % Max Range; for EC50: CHO-K1 cells stably expressing hCB2, intracellular cAMP, NKH-477 prestimulated, average of at least three replicates. The procedure: (§1) The ability of compounds to act as agonists or inverse agonists at human CB2 and CB1 receptors (hCB2, hCB1, respectively) was determined by measuring changes in intracellular cAMP levels. Chinese Hamster Ovary (CHO-K1) cell lines stably expressing hCB2 (Genebank: X74328) or hCB1 (Genebank: X54937) were purchased from Euroscreen (Gosselies, Belgium).
Sequence of human CB2 receptor (hCB2) (P34972 whole entry): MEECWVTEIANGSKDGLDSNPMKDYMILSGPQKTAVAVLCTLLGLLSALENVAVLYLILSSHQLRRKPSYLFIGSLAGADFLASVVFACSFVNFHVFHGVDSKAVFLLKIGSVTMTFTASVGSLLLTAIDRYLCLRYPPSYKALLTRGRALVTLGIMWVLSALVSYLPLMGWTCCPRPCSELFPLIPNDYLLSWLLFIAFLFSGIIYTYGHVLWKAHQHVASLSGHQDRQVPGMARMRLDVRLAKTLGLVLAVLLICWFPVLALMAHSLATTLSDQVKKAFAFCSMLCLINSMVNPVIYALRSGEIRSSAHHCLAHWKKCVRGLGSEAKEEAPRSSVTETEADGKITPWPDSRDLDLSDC
(§2) Cell lines were grown in suspension in EX-CELL 302 CHO Serum-free medium (Sigma, catalog #14324C) supplemented with 1% Fetal Bovine Serum, glutamine and with or without non-essential amino-acids under 0.4 mg/mL G418 selection.
(§3) Receptor mediated responses were determined by measuring changes in intracellular cAMP using LANCE cAMP detection kit (catalog #AD0264, PerkinElmer, Wellesley, Mass.) based on time-resolved fluorescence resonance energy transfer (TR-FRET). Changes in cAMP were determined in cells pre-incubated with IBMX (isobutyl methylxanthine) and prestimulated with NKH-477 (a water soluble forskolin derivative, catalog #1603, Tocris, Ellisville, Mo.) to increase basal cAMP levels as detailed below.
(§4) On the day of the experiment, cells were spun at low speed for 5 min at room temperature. The supernatant was removed and cells were resuspended in stimulation buffer (Hanks Buffered Salt Solution/5 mM HEPES, containing 0.5 mM IBMX (catalog #17018, Sigma) and 0.02% BSA (PerkinElmer, catalog #CR84-100)). Cell clumps were removed by filtering through cell strainer 40 μm (BD Falcon, Discovery Labware, Bedford, Mass.) and diluted to 2×10^5 cells/mL. Antibody supplied with the LANCE cAMP immunoassay kit was then added according to the manufacturer's instructions. An aliquot of cells was taken for un-induced controls. To the remaining cells was added NKH-477 (a water soluble forskolin derivative, Tocris catalog #1603) to a final concentration of 2-8 μM. Cells were then incubated for either 25 or 30 min at room temperature prior to adding to Proxiplates containing test compounds (final DMSO concentration was less than 0.5%) with a Multidrop bulk dispenser, followed by a sixty minute incubation at room temperature. The response was stopped by addition of the detection mix supplied with the LANCE kit.
(§5) The reagents were allowed to equilibrate for three hours prior to reading on an Envision multi-mode detector (PerkinElmer). TR-FRET was measured using a 330-380 nm excitation filter, 615 and 665 nm emission filters, dichroic mirror 380 nm and Z=1 mm.
(§6) Cyclic AMP concentrations in each well were back-calculated from a cAMP standard curve run concurrently during each assay. Each plate contained 16 wells of forskolin stimulated cells and 16 wells of forskolin plus CP55,940-treated. CP55,940-treated cells were treated with CP55,940 (Tocris catalog #0949) at 1 μM and the maximal response was used as the full range (100%) standard. WIN55,212 (Tocris catalog #1038) was used as an internal standard. Concentrations of cAMP were expressed as a percent of the difference of these two groups of wells. Concentration-response data including EC50 (the concentration of compound producing 50% of the maximal response) and intrinsic activity (the percent maximal activation compared to full activation by CP55,940) were determined using a four-parameter non-linear regression algorithm (Xlfit equation 251, IDBS). Assays were performed with at least three replicates per compound and averaged results for the several compounds of the invention are shown in Table I.
A general note: Changes in cAMP serve as a functional read-out for many G protein-coupled receptors.

Test [2] concerns the target human CB1 receptor (hCB1) (Homo sapiens, UniProt P21554). The experiment in a line: cAMP assay (LANCE TR-FRET) in CHO-K1 cells expressing hCB1. To be noted: activity on hCB1 represents inverse agonism; for Emax: CHO-K1, percent of range defined by CP55,940 (1 μM = 100%), read-out: hCB1 % Max Range; for EC50: CHO-K1 cells stably expressing hCB1, intracellular cAMP, NKH-477 prestimulated. Format: cell-based. On the procedure:
as §1, §2, §3, §4, §5
as §6, with “IDBS).” for “IDBS). Assays were performed with at least three replicates per compound and averaged results for the several compounds of the invention are shown in Table I.”

Sequence of human CB1 receptor (hCB1) (P21554 whole entry): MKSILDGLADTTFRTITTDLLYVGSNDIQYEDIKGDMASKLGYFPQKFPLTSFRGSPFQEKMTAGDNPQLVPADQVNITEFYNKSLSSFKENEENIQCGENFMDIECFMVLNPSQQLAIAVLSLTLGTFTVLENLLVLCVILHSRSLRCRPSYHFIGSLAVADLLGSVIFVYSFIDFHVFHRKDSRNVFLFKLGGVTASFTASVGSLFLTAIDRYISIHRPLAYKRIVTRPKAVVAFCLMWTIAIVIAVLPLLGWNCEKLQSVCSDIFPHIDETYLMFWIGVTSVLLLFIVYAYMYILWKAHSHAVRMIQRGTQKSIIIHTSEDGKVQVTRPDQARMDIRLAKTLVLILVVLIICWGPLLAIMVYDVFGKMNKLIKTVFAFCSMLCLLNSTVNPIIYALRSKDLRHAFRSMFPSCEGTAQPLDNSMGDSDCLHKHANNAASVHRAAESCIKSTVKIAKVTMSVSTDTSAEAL

Take `Cn1nccc1C1Nc2ccc(S(=O)(=O)N3CCCC3)cc2C2C3CCC(C3)C12` (stereo not shown) [(42), Bridged 6-(1-methyl-1H-pyrazol-5-yl)-2-(pyrrolidin-1-ylsulfonyl)-5,6,6a,7,8,9,10,10a-octahydrophenanthridine]: in test [1], the Emax came out at 100% and it took 0.91 nM to reach a half-maximal effect (EC50). Moreover, in test [2], the Emax was less than 40% and the EC50 was greater than 10000 nM.
On to `Cc1nc(-c2ccc3c(c2)C2C4CCC(C4)C2C(c2ccccc2)N3)cs1` (stereo not shown) [(43), Bridged 2-methyl-4-(6-phenyl-5,6,6a,7,8,9,10,10a-octahydrophenanthridin-2-yl)thiazole], for which, in test [1], the Emax is 64.6% and the EC50 is 217 nM. In test [2], the Emax came to 182% and the EC50 amounted to 3850 nM.
`Cc1nc(-c2ccc3c(c2)C2C4CCC(C4)C2C(c2ccnn2C)N3)cs1` (stereo not shown) [(44), Bridged 2-methyl-4-(6-(1-methyl-1H-pyrazol-5-yl)-5,6,6a,7,8,9,10,1 0a-octahydrophenanthridin-2-yl)thiazole]: in test [1], the Emax was 70.2% and the EC50 is 187 nM. In addition, in test [2], the Emax came to 111% and the EC50 stood at 2930 nM.
As to `CCCCc1nnc(-c2ccc3c(c2)C2C4CCC(C4)C2C(c2ccccc2)N3)o1` (stereo not shown) [(45), Bridged 2-butyl-5-(6-phenyl-5,6,6a,7,8,9,10,10a-octahydrophenanthridin-2-yl)-1,3,4-oxadiazole], the Emax in test [1] is 96.8%; in test [2] it was less than 40%. In addition, the EC50 in test [1] is 70.4 nM; in test [2], greater than 10000 nM.
Taken in the same sequence, the figures for `CC(=O)NS(=O)(=O)c1ccc2c(c1)C1C3CCC(C3)C1C(c1ccnn1C)N2` (stereo not shown) [(47), Bridged N-(6-(1-methyl-1H-pyrazol-5-yl)-5,6,6a,7,8,9,10,10a-octahydrophenanthridin-2-ylsulfonyl)acetamide] were 82.5%, less than 40%, 1490 nM and greater than 10000 nM.
Taken in the same sequence, the figures for `O=S(=O)(c1ccc2c(c1)C1CC=CC1C(c1ccccc1)N2)N1CCCCC1` (stereo not shown) [(48), 4-phenyl-8-(piperidin-1-ylsulfonyl)-3a,4,5,9b-tetrahydro-1H-cyclopenta[c]quinoline] were 82.3%, less than 40%, 73.9 nM and greater than 10000 nM.
Taken in the same sequence, the figures for `CN(C)S(=O)(=O)c1ccc2c(c1)C1CC=CC1C(c1ccccc1)N2` (stereo not shown) [(49), N,N-dimethyl-4-phenyl-3a,4,5,9b-tetrahydro-1H-cyclopenta[c]quinoline-8-sulfonamide] were less than 40%, 61.8%, greater than 10000 nM and 1040 nM.
As to `CC(C)S(=O)(=O)N1c2ccc(S(=O)(=O)N(C)C)cc2C2C3CCC(C3)C2C1c1ccccc1` (stereo not shown) [(50), Bridged 5-(isopropylsulfonyl)-N,N-dimethyl-6-phenyl-5,6,6a,7,8,9,10,10a-octahydrophenanthridine-2-sulfonamide], the results for the Emax in test [1] and in test [2] were 81.2% and less than 40%, respectively. For the same compound, the EC50 is 1500 nM in test [1] and greater than 10000 nM in test [2].
Taken in the same sequence, the figures for `CC(C)S(=O)(=O)Nc1ccc2c(c1)C1C3CCC(C3)C1C(c1ccccc1)N2` (stereo not shown) [(51), Bridged N-(6-phenyl-5,6,6a,7,8,9,10,10a-octahydrophenanthridin-2-yl)propane-2-sulfonamide] were 96.8%, 100%, 1.62 nM and 2210 nM.
Take `CS(=O)(=O)N(c1ccc2c(c1)C1C3CCC(C3)C1C(c1ccccc1)N2)S(C)(=O)=O` (stereo not shown) [(52), Bridged N-(methylsulfonyl)-N-(6-phenyl-5,6,6a,7,8,9,10,10a-octahydrophenanthridin-2-yl)methanesulfonamide]: in test [1], the Emax stood at 102% and the response was half-maximal at 0.63 nM (EC50). In addition, in test [2], the Emax is less than 40% and the EC50 is greater than 10000 nM.
On to `O=C(NCC1CC1)c1ccc2c(c1)C1C3CCC(C3)C1C(c1ccccc1)N2` (stereo not shown) [Compound (2d), Methylene bridged N-(cyclopropylmethyl)-6-phenyl-5,6,6a,7,8,9,10,10a-octahydrophenanthridine-2-carboxamide], for which the Emax in test [1] is 84%; in test [2], less than 40%. The values for the EC50 in test [1] and in test [2] were 19 nM and greater than 10000 nM, respectively.
For the compound `CCCCC(=O)Nc1ccc2c(c1)C1C3CCC(C3)C1C(c1ccccc1)N2` (stereo not shown) [Compound (4d), Bridged N-(6-phenyl-5,6,6a,7,8,9,10,10a-octahydrophenanthridin-2-yl)pentanamide], in test [1], the Emax came to 92% and the EC50 was determined as 6.9 nM. Besides, in test [2], the Emax was less than 40% and the EC50 is greater than 10000 nM.
Taken in the same sequence, the figures for `CCCNC(=O)Nc1ccc2c(c1)C1C3CCC(C3)C1C(c1ccccc1)N2` (stereo not shown) [Compound (5d), Bridged 1-(6-phenyl-5,6,6a,7,8,9,10,10a-octahydrophenanthridin-2-yl)-3-propylurea] were 73%, 289 nM, 46% and 2150 nM.
